# Measured values taken from US20070128217A1 (priority 2003, published 2007).
# Assays:
# [1] = tested on: antibodies in sera from SARS patients (sera 1a, 1b, 2, 6, 37, 62, London, SARS-yellow, SARS-green); format: binding, human; set-up: Binding of serum 6 to linear peptides of protein X1 of SARS-CoV Urbani / Binding of serum 37 to linear peptides of protein X1 of SARS-CoV Urbani / Binding of serum 6 to looped/cyclic peptide (PEPSCAN-ELISA) / Binding of serum 37 to looped/cyclic peptide (PEPSCAN-ELISA) / Binding of serum 37 to looped/cyclic peptides of protein X1 of SARS-CoV Urbani / Binding of serum 6 to linear peptides of protein X2 / Binding of serum 37 to linear peptides of protein X2 / Binding of serum 37 to looped/cyclic peptides of protein X2 of SARS-CoV Urbani / Binding of serum 6 to linear peptides of protein M of SARS-CoV Urbani / Binding of serum 37 to linear peptides of protein M of SARS-CoV Urbani / Binding of serum 6 to looped/cyclic peptides of protein M of SARS-CoV Urbani / Binding of serum 37 to looped/cyclic peptides of protein M of SARS-CoV Urbani / Binding of serum 6 to linear peptides of protein X3 of SARS-CoV Urbani / Binding of serum 37 to linear peptides of protein X3 of SARS-CoV Urbani / Binding of serum 37 to looped/cyclic peptides of protein X3 of SARS-CoV Urbani / Binding of serum 6 to linear peptides of protein X4 of SARS-CoV Urbani / Binding of serum 37 to linear peptides of protein X4 of SARS-CoV Urbani / Binding of serum 37 to looped/cyclic peptides of protein X4 of SARS-CoV Urbani / Binding of serum 6 to linear peptides of protein X5 of SARS-CoV Urbani / Binding of serum 37 to linear peptides of protein X5 of SARS-CoV Urbani / Binding of serum 37 to looped/cyclic peptides of protein X5 of SARS-CoV Urbani / Binding of serum 6 to linear peptides of protein N of SARS-CoV Urbani / Binding of serum 37 to linear peptides of protein N of SARS-CoV Urbani / Binding of serum 6 to linear peptide (PEPSCAN-ELISA) / Binding of serum 1a to looped/cyclic peptides of protein N of SARS-CoV Urbani / Binding of serum 1b to looped/cyclic peptides of protein N of SARS-CoV Urbani / Binding of serum 2 to looped/cyclic peptides of protein N of SARS-CoV Urbani / Binding of serum 6 to looped/cyclic peptides of protein N of SARS-CoV Urbani / Binding of serum 37 to looped/cyclic peptides of protein N of SARS-CoV Urbani / Binding of serum 62 to looped/cyclic peptides of protein N of SARS-CoV Urbani / Binding of serum London to looped/cyclic peptides of protein N of SARS-CoV Urbani / Binding of serum SARS-green to looped/cyclic peptides of protein N of SARS-CoV Urbani: unit not given here
# [2] = tested on: control sera (pooled serum of ten healthy LUMC hospital workers; commercial negative donor pooled serum from the Dutch bloodbank); format: binding, human; set-up: Binding of Control serum LUMC to linear peptides / Binding of Control serum Blood-bank to linear peptides / Binding of Control serum LUMC to looped peptides / Binding of Control Serum Blood-Bank to Looped peptides / Binding of Control serum LUMC to linear peptides of the protein M of SARS-CoV Urbani / Binding of Control serum Blood-bank to linear peptides of the protein M of SARS-CoV Urbani / Binding of Control serum LUMC to looped peptides of the protein M of SARS-CoV Urbani / Binding of Control Serum Blood-Bank to Looped peptides of the protein M of SARS-CoV Urbani: unit not given here
# [3] = tested on: rabbit serum obtained by immunizing a rabbit with the SARS-CoV strain Frankfurt 1; format: binding; set-up: Binding of a rabbit serum to linear peptides / Binding of a rabbit serum to looped peptides / Rabbit serum linear peptides / Rabbit serum looped peptides / Binding of a rabbit serum to linear peptides of protein N of SARS-CoV Urbani (Rabbit serum linear peptides) / Binding of a rabbit serum to looped/cyclic peptides of protein N of SARS-CoV Urbani (Rabbit serum looped peptides): unit not given here
# [4] = tested on: recombinant human anti-SARS-CoV antibody 03-018; format: binding; set-up: Binding of antibody 03-018 to linear peptides of the N protein of SARS-CoV Urbani / Binding of antibody 03-018 to looped/cyclic peptides of the N protein of SARS-CoV Urbani: unit not given here
Sequence,Binding of serum 1a to linear peptides of protein N of SARS-CoV Urbani [1],Binding of serum 1a to looped/cyclic peptides of protein N of SARS-CoV Urbani [1],Binding of serum 1b to linear peptides of protein N of SARS-CoV Urbani [1],Binding of serum 1b to looped/cyclic peptides of protein N of SARS-CoV Urbani [1],Binding of serum 2 to linear peptides of protein N of SARS-CoV Urbani [1],Binding of serum 2 to looped/cyclic peptides of protein N of SARS-CoV Urbani [1],Binding of serum 6 to looped/cyclic peptides of protein N of SARS-CoV Urbani [1],Binding of serum 37 to looped/cyclic peptides of protein N of SARS-CoV Urbani [1],Binding of serum 62 to looped/cyclic peptides of protein N of SARS-CoV Urbani [1],Binding of serum London to looped/cyclic peptides of protein N of SARS-CoV Urbani [1],Binding of serum SARS-green to looped/cyclic peptides of protein N of SARS-CoV Urbani [1],Binding of serum SARS-yellow to looped/cyclic peptides of protein N of SARS-CoV Urbani [1],Binding of Control Serum Blood-Bank to Looped peptides [2],Binding of Control serum Blood-bank to linear peptides [2],Binding of Control serum LUMC to linear peptides [2],Binding of Control serum LUMC to looped peptides [2],Binding of a rabbit serum to linear peptides of protein N of SARS-CoV Urbani (Rabbit serum linear peptides) [3],Binding of a rabbit serum to looped/cyclic peptides of protein N of SARS-CoV Urbani (Rabbit serum looped peptides) [3],Binding of antibody 03-018 to linear peptides of the N protein of SARS-CoV Urbani [4],Binding of antibody 03-018 to looped/cyclic peptides of the N protein of SARS-CoV Urbani [4],other results
SDNGPQSNQRSAPRI,0.2,0.3,0.0,0.0,0.1,0.3,0.3,0.5,0.4,0.4,0.2,0.1,0.5,0.6,0.5,0.5,0.1,0.2,0.0,0.2,Binding of serum 6 to linear peptides of protein N of SARS-CoV Urbani [1]: 0.2; Binding of serum 37 to linear peptides of protein N of SARS-CoV Urbani [1]: 0.2; Binding of serum 62 to linear peptides of protein N of SARS-CoV Urbani [1]: 0.4; Binding of serum London to linear peptides of protein N of SARS-CoV Urbani [1]: 0.5; Binding of serum SARS-green to linear peptides of protein N of SARS-CoV Urbani [1]: 0.0; Binding of serum SARS-yellow to linear peptides of protein N of SARS-CoV Urbani [1]: 0.5
SGGGETALALLLLDR,–,0.4,–,0.2,–,0.5,0.3,0.7,0.7,0.5,0.1,0.7,0.7,0.7,0.6,0.7,0.2,0.7,0.1,0.2,Binding of serum 1a to linear peptide (PEPSCAN-ELISA) [1]: 0.3; Binding of serum 1b to linear peptide (PEPSCAN-ELISA) [1]: 0.1; Binding of serum 2 to linear peptide (PEPSCAN-ELISA) [1]: 0.2; Binding of serum 6 to linear peptide (PEPSCAN-ELISA) [1]: 0.2; Binding of serum 37 to linear peptide (PEPSCAN-ELISA) [1]: 0.7; Binding of serum 62 to linear peptide (PEPSCAN-ELISA) [1]: 0.7; Binding of serum London to linear peptide (PEPSCAN-ELISA) [1]: 0.4; Binding of serum SARS-green to linear peptide (PEPSCAN-ELISA) [1]: 0.1; Binding of serum SARS-yellow to linear peptide (PEPSCAN-ELISA) [1]: 0.5
SGKGQQQQGQTVTKK,–,0.3,–,0.2,–,0.3,0.3,0.6,0.5,0.4,0.2,0.3,0.6,1.0,1.1,0.6,0.2,0.4,0.1,0.2,Binding of serum 1a to linear peptide (PEPSCAN-ELISA) [1]: 0.3; Binding of serum 1b to linear peptide (PEPSCAN-ELISA) [1]: 0.1; Binding of serum 2 to linear peptide (PEPSCAN-ELISA) [1]: 0.2; Binding of serum 6 to linear peptide (PEPSCAN-ELISA) [1]: 0.4; Binding of serum 37 to linear peptide (PEPSCAN-ELISA) [1]: 0.7; Binding of serum 62 to linear peptide (PEPSCAN-ELISA) [1]: 0.9; Binding of serum London to linear peptide (PEPSCAN-ELISA) [1]: 0.6; Binding of serum SARS-green to linear peptide (PEPSCAN-ELISA) [1]: 0.5; Binding of serum SARS-yellow to linear peptide (PEPSCAN-ELISA) [1]: 0.7
SGPDDQIGYYRRATR,0.2,0.4,0.1,0.3,0.2,0.5,0.4,0.8,0.7,0.5,0.5,0.7,0.8,0.8,0.7,0.9,–,–,0.1,0.3,Binding of serum 6 to linear peptides of protein N of SARS-CoV Urbani [1]: 0.2; Binding of serum 37 to linear peptides of protein N of SARS-CoV Urbani [1]: 0.6; Binding of serum 62 to linear peptides of protein N of SARS-CoV Urbani [1]: 0.6; Binding of serum London to linear peptides of protein N of SARS-CoV Urbani [1]: 0.4; Binding of serum SARS-green to linear peptides of protein N of SARS-CoV Urbani [1]: 0.4; Binding of serum SARS-yellow to linear peptides of protein N of SARS-CoV Urbani [1]: 0.6; Recognition of the peptide by the rabbit serum [3]: recognized
